The target of this experiment is T1, human TSHR (Homo sapiens, UniProt P16473).
T1 construct: expressed in transfected cells
Put plainly: Homogeneous Time Resolved Fluorescence (HTRF) cAMP assay, TSHR cell line. It counts as cell-based. The settings on record: for Maximum Activity compared to TSH: 100% activity = response of 30 mU/ml TSH, 0% = DMSO control, in %; for AC50: HTRF cAMP, TSHR cell line, 30 minute incubation. For orientation: Time-resolved FRET reads energy transfer from a long-lived donor to a nearby acceptor.

Molecules are shown by their SMILES. Read-outs that look alike come from different tables or passages of the source.

T1 sequence (P16473 21-764): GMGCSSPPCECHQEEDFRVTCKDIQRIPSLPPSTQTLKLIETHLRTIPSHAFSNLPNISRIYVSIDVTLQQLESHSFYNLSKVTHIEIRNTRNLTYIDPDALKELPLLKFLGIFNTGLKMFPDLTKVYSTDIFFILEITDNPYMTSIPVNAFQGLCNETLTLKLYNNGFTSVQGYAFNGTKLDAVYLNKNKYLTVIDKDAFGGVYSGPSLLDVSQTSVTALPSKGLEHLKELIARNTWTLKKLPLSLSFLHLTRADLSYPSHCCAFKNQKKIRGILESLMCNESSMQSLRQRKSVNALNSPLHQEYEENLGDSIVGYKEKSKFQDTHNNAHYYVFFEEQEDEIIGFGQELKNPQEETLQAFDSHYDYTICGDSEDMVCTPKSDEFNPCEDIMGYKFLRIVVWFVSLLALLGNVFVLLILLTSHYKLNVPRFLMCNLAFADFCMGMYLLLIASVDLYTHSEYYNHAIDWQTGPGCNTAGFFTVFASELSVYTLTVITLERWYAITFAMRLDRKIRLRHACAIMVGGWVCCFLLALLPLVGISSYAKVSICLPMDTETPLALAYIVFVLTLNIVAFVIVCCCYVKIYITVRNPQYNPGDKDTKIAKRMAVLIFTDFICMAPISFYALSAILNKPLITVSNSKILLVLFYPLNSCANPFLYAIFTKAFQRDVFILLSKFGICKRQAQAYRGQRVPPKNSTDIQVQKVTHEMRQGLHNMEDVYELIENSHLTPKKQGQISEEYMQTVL

In the case of `COc1ccc(C2Nc3ccccc3C(=O)N2Cc2ccccc2Cl)cc1COc1ccc(NC(C)=O)cc1` (centres unmarked) [Structure 273], the “Maximum Activity compared to TSH” value is 11.00. The AC50 (commonly the concentration giving half of the maximal activity seen) (read-out: AC50) was determined as 2.51 µM.

In the case of `COc1ccc(C2Nc3cccc(OC)c3C(=O)N2Cc2ccccc2)cc1COc1ccc(NC(C)=O)cc1` (centres unmarked) [Structure 274], the “Maximum Activity compared to TSH” value worked out at 28.00. The half-maximal activity concentration (AC50) (read-out: AC50) was 20 µM. Regarding `CCC(=O)Nc1ccc(OCc2cc(C3Nc4ccccc4C(=O)N3Cc3ccccc3)ccc2OC)cc1` (centres unmarked) [Structure 275], the “Maximum Activity compared to TSH” value turned out to be 23.50. Further, the half-maximal activity concentration (AC50) (read-out: AC50) is 7.94 µM.

In the case of `COc1ccc(C2Nc3ccccc3C(=O)N2CC(C)(C)C)cc1COc1ccc(NC(C)=O)cc1` (centres unmarked) [Structure 276], the “Maximum Activity compared to TSH” value is 32.00. Besides, the AC50 (read-out: AC50) was 25.1 µM. For `O=C(c1ccccc1O)N(Cc1cccs1)Cc1cccs1` [Structure 277], the AC50 result was “inactive”. As for `COc1ccc(C2Nc3ccccc3C(=O)N2Cc2ccccc2)cc1COc1cccc(Cl)c1` (centres unmarked) [Structure 278], the AC50 entry was “inactive”. Regarding `COc1ccc(C2Nc3ccccc3C(=O)N2Cc2ccccc2OC)cc1COc1ccc(NC(C)=O)cc1` (centres unmarked) [Structure 279], the “Maximum Activity compared to TSH” value is listed as 20.50. Moreover, where the note is “read-out: AC50”, the AC50 turned out to be 4.47 µM. Take `COc1ccc(C2Nc3ccccc3C(=O)N2Cc2ccccc2C)cc1COc1ccc(NC(C)=O)cc1` (centres unmarked) [Structure 280]: for the setting “read-out: AC50”, the half-maximal activity concentration (AC50) was found to be 17.8 µM. Also, the Emax (read-out: Maximum Activity compared to TSH, 100% activity = response of 30 mU/ml TSH, 0% = DMSO control) was determined as 24%.

As to `COc1ccc(C2Nc3ccccc3C(=O)N2Cc2ccccc2C)cc1COc1ccc(NC(C)=O)cc1` (centres unmarked) [Structure 281], the “Maximum Activity compared to TSH” value stood at 22.00. The concentration at half-maximal activity (AC50) (read-out: AC50) was found to be 5.62 µM. Consider `COc1ccc(C2Nc3ccccc3C(=O)N2Cc2ccco2)cc1COc1ccc(N)cc1` (centres unmarked) [Structure 282], for which the AC50 entry is “inactive”. As to `COc1ccc(C2Nc3ccccc3C(=O)N2Cc2ccco2)cc1COc1c(C)cccc1C` (centres unmarked) [Structure 284], the half-maximal activity concentration (AC50) entry was “inactive”. Still for that read-out and setting: as for `COc1ccc(CNCc2ccccc2)cc1COc1ccc(NC(C)=O)cc1` [Structure 285], the entry is “inactive”. For the compound `O=C(c1ccccc1O)N(Cc1ccccc1)Cc1cccs1` [Structure 287], the “Maximum Activity compared to TSH” value worked out at 30.00. In addition, the concentration at half-maximal activity (AC50) (read-out: AC50) was 22.4 µM.

As to `COc1ccc(C2Nc3ccccc3C(=O)N2Cc2cccc3ccccc23)cc1COc1ccc(NC(C)=O)cc1` (centres unmarked) [Structure 288], the “Maximum Activity compared to TSH” value was determined as 20.50. Under “read-out: AC50”, the half-maximal activity concentration (AC50) is 2.24 µM.

`COc1ccc(C2Nc3ccccc3C(=O)N2Cc2ccco2)cc1COc1ccc([N+](=O)[O-])cc1` (centres unmarked) [Structure 289]: the AC50 result is “inactive”. The same measure, in the same setting: the entry for `COc1ccc(C2Nc3ccccc3C(=O)N2Cc2ccco2)cc1COc1ccc([N+](=O)[O-])cc1` (centres unmarked) [Structure 290] is “inactive”. For `COc1ccc(CN(Cc2ccccc2)C(=O)c2ccccc2O)cc1` [Structure 291], the “Maximum Activity compared to TSH” value was 38.00. For the same compound, the AC50 (read-out: AC50) was found to be 35.5 µM.

`COc1ccc(-c2nc3ccc(NC(=O)CO)cc3c(=O)n2Cc2cccc(Cl)c2)cc1COc1ccc(NC(C)=O)cc1` [Structure 292]: the AC50 entry was “inactive”. Same read-out and setting: as for `COc1ccc(CN2C(=O)N(c3ccccc3)C(=O)C2c2ccccc2)cc1COc1ccc(NC(C)=O)cc1` (centres unmarked) [Structure 293], the entry is “inactive”.
